In ChEMBL document CHEMBL5344441, “Discovery and Preclinical Pharmacology of NX-2127, an Orally Bioavailable Degrader of Bruton's Tyrosine Kinase with Immunomodulatory Activity for the Treatment of Patients with B Cell Malignancies” (J Med Chem, 2024):
≈ marks a conversion by molar mass, not a printed value. Calls of active or inactive are those of the source. The rule behind the calls is not given here.

Columns and labels:
[1] = biological target: T1, Protein cereblon/Tyrosine-protein kinase BTK (Homo sapiens, UniProt Q06187+Q96SW2); experiment: PROTAC activity at CRBN/BTK in human TMD8 cells assessed as degradation of BTK protein incubated for 4 hrs by HTRF assay; format: cell-based
Target sequence in this assay (Q06187 whole entry): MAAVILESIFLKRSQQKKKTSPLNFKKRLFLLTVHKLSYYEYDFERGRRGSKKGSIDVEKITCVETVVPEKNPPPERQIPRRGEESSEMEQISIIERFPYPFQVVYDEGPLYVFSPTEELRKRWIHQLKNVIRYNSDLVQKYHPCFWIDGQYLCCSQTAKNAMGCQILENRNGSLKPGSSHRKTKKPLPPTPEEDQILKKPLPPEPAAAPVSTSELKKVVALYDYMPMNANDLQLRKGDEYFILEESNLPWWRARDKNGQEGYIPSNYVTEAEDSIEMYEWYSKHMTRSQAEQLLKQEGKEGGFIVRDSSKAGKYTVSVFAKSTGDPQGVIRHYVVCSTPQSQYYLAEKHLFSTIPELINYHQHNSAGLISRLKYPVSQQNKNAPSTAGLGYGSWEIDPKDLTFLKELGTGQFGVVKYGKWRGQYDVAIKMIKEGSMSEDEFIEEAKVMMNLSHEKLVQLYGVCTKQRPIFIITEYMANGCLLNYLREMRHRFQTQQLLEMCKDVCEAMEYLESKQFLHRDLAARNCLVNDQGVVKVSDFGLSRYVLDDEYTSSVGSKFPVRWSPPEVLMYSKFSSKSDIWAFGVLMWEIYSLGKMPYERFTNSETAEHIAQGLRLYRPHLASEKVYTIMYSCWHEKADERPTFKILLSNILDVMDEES
Target sequence in this assay (Q96SW2 whole entry): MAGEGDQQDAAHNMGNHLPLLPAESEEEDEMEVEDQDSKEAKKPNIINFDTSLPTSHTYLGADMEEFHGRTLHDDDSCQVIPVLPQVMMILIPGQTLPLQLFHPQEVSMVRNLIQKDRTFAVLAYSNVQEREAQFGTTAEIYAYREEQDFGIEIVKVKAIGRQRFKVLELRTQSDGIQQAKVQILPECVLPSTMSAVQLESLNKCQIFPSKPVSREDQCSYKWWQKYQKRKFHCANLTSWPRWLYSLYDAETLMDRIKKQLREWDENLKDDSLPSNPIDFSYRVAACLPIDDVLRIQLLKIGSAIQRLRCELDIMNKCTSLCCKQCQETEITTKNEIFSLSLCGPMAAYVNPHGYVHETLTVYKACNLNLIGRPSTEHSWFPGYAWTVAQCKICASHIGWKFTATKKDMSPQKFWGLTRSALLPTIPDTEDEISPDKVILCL

[2] = biological target: T1, Protein cereblon/Tyrosine-protein kinase BTK; experiment: PROTAC activity at CRBN/BTK in human TMD8 cells assessed as maximal degradation of BTK protein incubated for 4 hrs by HTRF assay relative to control; format: cell-based
Target sequence in this assay (Q06187 2-659 limits assumed): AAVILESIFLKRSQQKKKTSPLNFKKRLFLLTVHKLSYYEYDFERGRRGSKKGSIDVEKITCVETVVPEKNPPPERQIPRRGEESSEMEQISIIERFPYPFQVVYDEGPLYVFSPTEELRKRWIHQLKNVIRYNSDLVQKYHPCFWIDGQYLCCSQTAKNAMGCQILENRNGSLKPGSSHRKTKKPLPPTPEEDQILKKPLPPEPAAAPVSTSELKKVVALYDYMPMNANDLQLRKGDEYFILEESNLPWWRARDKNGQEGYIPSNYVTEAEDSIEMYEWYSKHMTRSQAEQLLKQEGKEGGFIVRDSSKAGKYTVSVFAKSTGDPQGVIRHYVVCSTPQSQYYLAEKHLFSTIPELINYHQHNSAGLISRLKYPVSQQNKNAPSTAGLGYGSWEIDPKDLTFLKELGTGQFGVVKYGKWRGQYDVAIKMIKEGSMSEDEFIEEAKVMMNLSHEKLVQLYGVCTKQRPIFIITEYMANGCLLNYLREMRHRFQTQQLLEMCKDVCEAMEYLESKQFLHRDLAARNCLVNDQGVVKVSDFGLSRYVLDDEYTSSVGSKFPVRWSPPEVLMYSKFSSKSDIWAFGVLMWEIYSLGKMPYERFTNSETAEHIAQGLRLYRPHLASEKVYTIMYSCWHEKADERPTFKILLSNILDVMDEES
Target sequence in this assay (Q96SW2 whole entry partner): as the sequence (Q96SW2 whole entry) above

[3] = biological target: T2, Protein cereblon/Tyrosine-protein kinase BTK (Mus musculus) (UniProt P35991+Q8C7D2); experiment: In vivo protac activity at CRBN/BTK in BALB/c mouse assessed as remaining BTK protein in splenocyte at 3 mg/kg,po administration measured after 6 hrs by HTRF assay relative to control; format: functional, organism-based
[4] = biological target: T1, Protein cereblon/Tyrosine-protein kinase BTK; experiment: PROTAC activity at CRBN/BTK in human Ramos cells assessed as degradation of BTK protein incubated for 4 hrs by HTRF assay; format: cell-based
Target sequence in this assay (Q06187 whole entry): as the sequence (Q06187 whole entry) above
Target sequence in this assay (Q96SW2 whole entry): as the sequence (Q96SW2 whole entry) above

[5] = biological target: T1, Protein cereblon/Tyrosine-protein kinase BTK; experiment: PROTAC activity at CRBN/BTK in human Ramos cells assessed as maximal degradation of BTK protein incubated for 4 hrs by HTRF assay relative to control; format: cell-based
Target sequence in this assay (Q06187 2-659 limits assumed): as the sequence (Q06187 2-659 limits assumed) above
Target sequence in this assay (Q96SW2 whole entry partner): as the sequence (Q96SW2 whole entry) above

[6] = biological target: T3, Protein cereblon/Zinc finger protein Aiolos (Homo sapiens, UniProt Q96SW2+Q9UKT9); experiment: PROTAC activity at CRBN/IKZF3 in human T cell assessed as degradation of IKZF3 protein incubated for 24 hrs by flow cytometry; format: cell-based
Target sequence in this assay (Q96SW2 whole entry): as above
Target sequence in this assay (Q9UKT9 whole entry): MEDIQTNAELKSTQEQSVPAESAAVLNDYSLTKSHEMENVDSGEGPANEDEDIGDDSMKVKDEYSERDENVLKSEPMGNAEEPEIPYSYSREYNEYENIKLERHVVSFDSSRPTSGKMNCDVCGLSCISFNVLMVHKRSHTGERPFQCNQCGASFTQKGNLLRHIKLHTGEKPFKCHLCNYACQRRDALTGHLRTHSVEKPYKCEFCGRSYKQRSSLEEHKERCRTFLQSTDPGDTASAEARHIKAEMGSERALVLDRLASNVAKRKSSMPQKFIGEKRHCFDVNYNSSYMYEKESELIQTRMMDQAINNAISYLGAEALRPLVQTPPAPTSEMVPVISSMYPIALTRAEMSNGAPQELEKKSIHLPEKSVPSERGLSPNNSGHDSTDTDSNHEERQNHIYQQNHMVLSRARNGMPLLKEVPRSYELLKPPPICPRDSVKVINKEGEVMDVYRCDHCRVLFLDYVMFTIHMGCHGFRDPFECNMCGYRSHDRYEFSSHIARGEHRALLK

[7] = biological target: T3, Protein cereblon/Zinc finger protein Aiolos; experiment: PROTAC activity at CRBN/IKZF3 in human T cell assessed as maximal degradation of IKZF3 protein incubated for 24 hrs by flow cytometry relative to control; format: cell-based
Target sequence in this assay (Q96SW2 whole entry, looked up): as the sequence (Q96SW2 whole entry) above
Target sequence in this assay (Q9UKT9 whole entry, looked up): as the sequence (Q9UKT9 whole entry) above

[8] = biological target: T2, Protein cereblon/Tyrosine-protein kinase BTK (Mus musculus); experiment: In vivo protac activity at CRBN/BTK in BALB/c mouse assessed as remaining BTK protein in blood at 3 mg/kg,po administration measured after 6 hrs by flow cytomtery relative to control; format: functional, organism-based
[9] = system: TMD8; experiment: Antitumor activity against human TMD8 cells expressing wild type BTK xenografted in CB17-SCID mouse assessed as tumor growth inhibition at 30 mg/kg,po administration for 25 days; format: functional; conditions: TMD8, 600 h, time 25 day, read-out: TGI
[10] = system: TMD8; experiment: Antitumor activity against human TMD8 cells expressing BTK C481S mutant xenografted in CB17-SCID mouse assessed as tumor growth inhibition at 30 mg/kg,po administration for 25 days; format: functional; conditions: time 25.0 day
[11] = Lipophilicity, logD of compound at pH 7.4; format: physicochemical; conditions: buffer
[12] = biological target: Protein cereblon/Tyrosine-protein kinase BTK (Homo sapiens, UniProt Q06187+Q96SW2, C481S); experiment: PROTAC activity at CRBN/BTK C481S mutant in human TMD8 cells assessed as degradation of BTK protein incubated for 4 hrs by HTRF assay; format: cell-based
[13] = biological target: Cereblon/Ikaros (Homo sapiens, UniProt Q96SW2+Q13422); experiment: PROTAC activity at CRBN/IKZF1 in human T cell assessed as degradation of IKZF1 protein incubated for 24 hrs by flow cytometry; format: cell-based
[14] = Aqueous solubility of the compound in PBS at pH 7.4; format: physicochemical
[15] = Efflux ratio of apparent permeability in human Caco-2 cells; format: ADME, cell-based
[16] = Apparent permeability across apical to basolateral side in human Caco-2 cells; format: ADME, cell-based
[17] = Plasma protein binding in mouse; format: ADME, cell-free; conditions: read-out: PPB
[18] = Plasma protein binding in rat; format: ADME, cell-free; conditions: read-out: PPB
[19] = Plasma protein binding in dog; format: ADME, cell-free, Canis lupus familiaris; conditions: read-out: PPB (converted)
[20] = Plasma protein binding in cynomolgus monkey; format: ADME, cell-free, Macaca fascicularis; conditions: read-out: PPB (converted)
[21] = Plasma protein binding in human; format: ADME, cell-free; conditions: read-out: PPB (converted)
[22] = Ratio of drug concentration in mouse blood to plasma; format: ADME, cell-free; conditions: whole blood
[23] = Ratio of drug concentration in rat blood to plasma; format: ADME, cell-free; conditions: whole blood
[24] = Ratio of drug concentration in dog blood to plasma; format: ADME, cell-free, Canis lupus familiaris; conditions: whole blood
[25] = Ratio of drug concentration in cynomolgus monkey blood to plasma; format: ADME, cell-free, Macaca fascicularis; conditions: whole blood
[26] = Ratio of drug concentration in human blood to plasma; format: ADME, cell-free; conditions: whole blood
[27] = Observed clearance in mouse at 1 mg/kg,iv; format: ADME, organism-based; conditions: in vivo
[28] = AUC in mouse at 10 mg/kg,po; format: ADME, organism-based; design: dose 10 mg/kg, route po; conditions: in vivo
[29] = Oral bioavailability in mouse at 10 mg/kg; format: ADME, organism-based; conditions: in vivo
[30] = system: Protein cereblon/Tyrosine-protein kinase BTK (Homo sapiens), Q06187+Q96SW2 [C481S]; experiment: PROTAC activity at CRBN/BTK C481S mutant in human TMD8 cells assessed as maximal degradation of BTK protein incubated for 4 hrs by HTRF assay relative to control; format: cell-based

T2 sequence (P35991 whole entry, looked up): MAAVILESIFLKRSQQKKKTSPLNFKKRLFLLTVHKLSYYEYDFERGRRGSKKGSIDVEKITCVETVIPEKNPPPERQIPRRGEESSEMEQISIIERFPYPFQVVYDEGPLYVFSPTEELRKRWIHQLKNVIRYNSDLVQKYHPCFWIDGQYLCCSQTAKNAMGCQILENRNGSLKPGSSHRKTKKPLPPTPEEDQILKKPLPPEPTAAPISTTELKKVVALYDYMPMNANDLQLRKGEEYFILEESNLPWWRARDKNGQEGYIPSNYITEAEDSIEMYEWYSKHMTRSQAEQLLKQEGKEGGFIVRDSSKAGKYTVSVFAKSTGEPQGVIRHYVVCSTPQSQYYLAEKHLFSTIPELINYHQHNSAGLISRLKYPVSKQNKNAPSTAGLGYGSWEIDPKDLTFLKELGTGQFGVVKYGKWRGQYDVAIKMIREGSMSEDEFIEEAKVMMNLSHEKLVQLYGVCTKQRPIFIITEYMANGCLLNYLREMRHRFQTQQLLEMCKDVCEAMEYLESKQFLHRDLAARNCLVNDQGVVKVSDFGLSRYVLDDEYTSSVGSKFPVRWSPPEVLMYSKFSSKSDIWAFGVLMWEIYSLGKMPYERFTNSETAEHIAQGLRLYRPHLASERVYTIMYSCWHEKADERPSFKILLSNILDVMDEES
T2 sequence (Q8C7D2 whole entry, looked up): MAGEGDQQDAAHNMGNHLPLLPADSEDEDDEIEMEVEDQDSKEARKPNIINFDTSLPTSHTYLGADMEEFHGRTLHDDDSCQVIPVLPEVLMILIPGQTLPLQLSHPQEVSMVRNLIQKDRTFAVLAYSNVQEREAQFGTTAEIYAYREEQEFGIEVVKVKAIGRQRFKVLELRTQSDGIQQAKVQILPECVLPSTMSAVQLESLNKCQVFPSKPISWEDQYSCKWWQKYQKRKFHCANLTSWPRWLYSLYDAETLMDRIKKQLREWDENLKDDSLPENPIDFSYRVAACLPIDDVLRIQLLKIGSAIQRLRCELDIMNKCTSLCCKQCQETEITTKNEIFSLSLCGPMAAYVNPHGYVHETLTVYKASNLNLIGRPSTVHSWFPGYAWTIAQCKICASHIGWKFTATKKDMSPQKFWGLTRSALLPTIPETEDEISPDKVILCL
Cereblon/Ikaros, sequence (Q96SW2 whole entry): as the sequence (Q96SW2 whole entry) above
Cereblon/Ikaros, sequence (Q13422 whole entry): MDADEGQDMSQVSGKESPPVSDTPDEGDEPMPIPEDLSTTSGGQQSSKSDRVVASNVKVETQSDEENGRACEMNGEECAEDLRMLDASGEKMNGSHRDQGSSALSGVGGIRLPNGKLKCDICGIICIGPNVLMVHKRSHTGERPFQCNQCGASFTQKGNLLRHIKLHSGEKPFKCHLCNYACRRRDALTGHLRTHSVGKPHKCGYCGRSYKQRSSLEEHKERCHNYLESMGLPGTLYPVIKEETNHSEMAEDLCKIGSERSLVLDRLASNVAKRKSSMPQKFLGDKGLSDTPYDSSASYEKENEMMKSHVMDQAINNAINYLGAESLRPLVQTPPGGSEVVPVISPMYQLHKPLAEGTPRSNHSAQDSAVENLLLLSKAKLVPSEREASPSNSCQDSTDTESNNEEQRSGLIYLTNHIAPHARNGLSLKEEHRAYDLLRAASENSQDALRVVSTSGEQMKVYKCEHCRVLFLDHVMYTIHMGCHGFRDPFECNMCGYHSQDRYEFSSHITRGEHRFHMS
Protein cereblon/Tyrosine-protein kinase BTK (Homo sapiens, UniProt Q06187+Q96SW2, C481S), sequence (Q06187 2-659 C481S limits assumed, stated change not applied): as the sequence (Q06187 2-659 limits assumed) above, with C480S counted along it
Protein cereblon/Tyrosine-protein kinase BTK (Homo sapiens, UniProt Q06187+Q96SW2, C481S), sequence (Q96SW2 whole entry, stated change not applied): as the sequence (Q96SW2 whole entry) above

## CN1CCN([C@@H]2CCCN(c3cnc(C(N)=O)c(Nc4ccc(C5CCN(C[C@H]6CCN(c7ccc8c(c7)C(=O)N(C7CCC(=O)NC7=O)C8=O)C6)CC5)nc4)n3)C2)C1=O (some centres not stated)
[1]
  DC50: 1 nM
[2]
  Emax: 96%
[3]
  Activity: 46%

## C[C@H]1CN(C(=O)CCOCCCc2cccc3c2CN(C2CCC(=O)NC2=O)C3=O)CCN1c1ccc(Nc2cc(-c3ccnc(N4CCn5c(cc6c5CC(C)(C)C6)C4=O)c3CO)cn(C)c2=O)nc1 (some centres not stated)
[4]
  DC50: 7.2 nM
[5]
  Emax: 88%

## Cn1cc(-c2ccnc(-n3ncc4cc(C(C)(C)C)cc(F)c4c3=O)c2CO)cc(Nc2cc3n(n2)CCN(C(=O)CCOCCCc2cccc4c2CN(C2CCC(=O)NC2=O)C4=O)C3)c1=O (configuration not stated)
[4]
  DC50: 50 nM
[5]
  Emax: 79%

## CN1CCN([C@@H]2CCCN(c3cnc(C(N)=O)c(Nc4ccc(N5CC6(C5)CN(c5ccc7c(c5)C(=O)N(C5CCC(=O)NC5=O)C7=O)C6)cc4)n3)C2)C1=O (some centres not stated)
[4]
  DC50: 0.9 nM
[5]
  Emax: 94%
[1]
  DC50: 0.8 nM
[2]
  Emax: 97%
[6]
  DC50: 14 nM
[7]
  Emax: 83%

## CN1CCN([C@@H]2CCCN(c3cnc(C(N)=O)c(Nc4ccc(C5CCN(C(=O)CCOCCNc6cccc7c6C(=O)N(C6CCC(=O)NC6=O)C7=O)CC5)cc4)n3)C2)C1=O (some centres not stated)
[4]
  DC50: 6.3 nM
[5]
  Emax: 80%
[7]
  Emax: 99%

## CN1CCN([C@@H]2CCCN(c3cnc(C(N)=O)c(Nc4cnn(C5CCN(CC6CCN(c7ccc8c(c7)C(=O)N(C7CCC(=O)NC7=O)C8=O)CC6)CC5)c4)n3)C2)C1=O (some centres not stated)
[1]
  DC50: 0.63 nM
[2]
  Emax: 96%
[8]
  Activity: 48%

## CN1CCN([C@@H]2CCCN(c3cnc(C(N)=O)c(Nc4ccc(N5CCC6(CC5)CN(c5cccc7c5C(=O)N(C5CCC(=O)NC5=O)C7=O)C6)cc4)n3)C2)C1=O (some centres not stated)
[2]
  Emax: 50%

## C=CC(=O)N1CCC[C@@H](n2nc(-c3ccc(Oc4ccccc4)cc3)c3c(N)ncnc32)C1 [IBRUTINIB]
[9]
  inhibition in vivo at 30 mg/kg: 55%
[10]
  Activity: inactive

## CN1CCN([C@@H]2CCCN(c3cnc(C(N)=O)c(Nc4ccc(C5CCN(CCCNc6cccc7c6C(=O)N(C6CCC(=O)NC6=O)C7=O)CC5)cc4)n3)C2)C1=O (some centres not stated)
[4]
  DC50: 2.4 nM
[5]
  Emax: 95%
[6]
  DC50: 11 nM
[7]
  Emax: 87%

## CN1CCN([C@@H]2CCCN(c3cnc(C(N)=O)c(Nc4ccc(C5CCN(C[C@H]6CCN(c7ccc8c(c7)C(=O)N(C7CCC(=O)NC7=O)C8=O)C6)CC5)cc4)n3)C2)C1=O (some centres not stated)
[4]
  DC50: 0.5 nM
[5]
  Emax: 97%
[1]
  DC50: 0.35 nM
[2]
  Emax: 97%
[7]
  Emax: 79%
[3]
  Activity: 32%
[8]
  Activity: 50%
[11]
  logD: 3.7
[12]
  DC50: 1.5 nM
[13]
  DC50: 57 nM
[14]
  solubility: 0.3 µM (≈ 0.245 µg/mL)
[15]
  efflux ratio: > 84
[16]
  Papp A→B: < 0.1 nm/s
[17]
  fraction unbound: < 0.015
[18]
  fraction unbound: < 0.015
[19]
  fraction unbound: 0.031
[20]
  fraction unbound: 0.025
[21]
  fraction unbound: 0.066
[22]
  blood plasma ratio: 1.1
[23]
  blood plasma ratio: 1.3
[24]
  blood plasma ratio: 6
[25]
  blood plasma ratio: 11
[26]
  blood plasma ratio: 0.3
[27]
  clearance: 0.18 L/h/kg
[28]
  AUC: 3.6 µM·h
[29]
  bioavailability: 5.4%
[30]
  Emax: 94.8%

## CN1CCN([C@@H]2CCCN(c3cnc(C(N)=O)c(Nc4ccc(C5CCN(C6CN(c7ccc8c(c7)C(=O)N(C7CCC(=O)NC7=O)C8=O)C6)CC5)cc4)n3)C2)C1=O (some centres not stated)
[4]
  DC50: 1.4 nM
[5]
  Emax: 91%
[1]
  DC50: 1.2 nM
[2]
  Emax: 96%
[6]
  DC50: 32 nM
[7]
  Emax: 74%
[8]
  Activity: 35%

## CN1CCN([C@@H]2CCCN(c3cnc(C(N)=O)c(Nc4ccc(C5CCN(C[C@H]6CC[C@H](Nc7cccc8c7C(=O)N(C7CCC(=O)NC7=O)C8=O)CC6)CC5)cc4)n3)C2)C1=O (some centres not stated)
[4]
  DC50: 1.6 nM
[5]
  Emax: 90%
[6]
  DC50: 40 nM
[7]
  Emax: 85%

## CN1CCN([C@@H]2CCCN(c3cnc(C(N)=O)c(Nc4ccc(N5CCC6(CCN(c7ccc8c(c7)C(=O)N(C7CCC(=O)NC7=O)C8=O)CC6)CC5)nc4)n3)C2)C1=O (some centres not stated)
[1]
  DC50: 4.3 nM
[2]
  Emax: 94%
[8]
  Activity: 96%
